By EC50 is commonly meant the concentration giving half of the maximal effect.

Drawing on patent publication US9771361B2, “Inhibitors of influenza viruses replication” (priority 2013, dated 2017), this text covers EC50 for 1 compound.

What all share (assay type): cell-based, influenza A virus
Details in all cases: read-out: Cell Protection Assay EC50 ± SD Comp (1)

In test [1] the test system is A/WS/33.
Test [2] has as its system A/NWS/33.
Test [3] has as its system A/Puerto Rico/8/34.
Test [4] has as its system A/Weiss/43.
Test [5] deals with A/Georgia/20/2006.
Test [6] concerns A/St. Petersburg/8/2006.
Test [7] concerns A/Virginia/01/2006.
Test [8] has as its system A/California/07/2009 NYMC X-179A.
Test [9] has as its system A/Port Chalmers/1/73.
Test [10] deals with A/Wisconsin/67/2005.
Test [11] has as its system A/Nebraska/1/2006.
In test [12] the test system is A/Texas/12/2007.
The subject of test [13] is A/Uruguay/716/2007.
The subject of test [14] is A/California/07/2009.
Test [15] relates to A/Mexico/4108/2009.
Test [16] has as its system A/Texas/48/2009.

Each structure is given as a SMILES string.

Consider `O=C(O)[C@H]1C2CCC(CC2)C1Nc1nc(-c2c[nH]c3ncc(F)cc23)ncc1F` (stereo partly shown) [Compound (1)], for which the EC50 in test [1] is 3.2 ± 4.3 nM; in [2], 0.73 ± 0.1 nM; in test [3], 3.2 ± 1.8 nM; in [4], 0.31 ± 0.23 nM; in [5], 2.6 ± 3.8 nM; in [6], 0.88 ± 0.69 nM. Besides, the EC50 in test [7] came out at 0.42 ± 0.24 nM; in [8], 2.7 ± 1.8 nM; in test [9] it was 0.54 ± 0.11 nM; in [10], 1.8 ± 0.24 nM; in [11] it was 2.1 ± 1.3 nM; in [12], 0.65 ± 0.22 nM. In addition, the EC50 worked out at 3.5 ± 5.1 nM in test [13], 1.8 ± 1.6 nM in test [14], 2.7 ± 1.8 nM in test [15] and 2.8 ± 3.2 nM in [16].
